Reference: article PMC6324813, “Biological evaluation of isoflavonoids from Genista halacsyi using estrogen-target cells: Activities of glucosides compared to aglycones” (PLoS ONE, 2019)
Where two headings read alike, the source gives them in different places.

How the values were obtained:
ERα = molecular target: T1, ERα (Homo sapiens, UniProt P03372); experiment: ERE-dependent luciferase gene transcription in MCF-7:D5L cells; format: cell-based; design: MCF-7:D5L cells, a clone of MCF-7 cells stably transfected with an Estrogen Response Element (ERE)-endowed reporter plasmid; endogenous in cells; host or cells: MCF-7:D5L (MCF-7 clone carrying pERE-Gl-Luciferase); settings: for Induction of ERE-dependent Luciferase Transcription (MCF-7:D5L cells) AUC (%): % of AUC of luciferase response of archetypal 3, 4, 5 or 8 up to 0.3, 10, 1.0 and 3.0 μM; for Induction of luciferase gene transcription, MCF-7:D5L cells, Agonism at 1μΜ, class: compounds 1 μM, 18 h; for Induction of ERE-dependent Luciferase Transcription (MCF-7:D5L cells) EC25E2: concentration required to achieve 25% of the effect of 0.1 nM E2
T1 sequence (P03372 1-595): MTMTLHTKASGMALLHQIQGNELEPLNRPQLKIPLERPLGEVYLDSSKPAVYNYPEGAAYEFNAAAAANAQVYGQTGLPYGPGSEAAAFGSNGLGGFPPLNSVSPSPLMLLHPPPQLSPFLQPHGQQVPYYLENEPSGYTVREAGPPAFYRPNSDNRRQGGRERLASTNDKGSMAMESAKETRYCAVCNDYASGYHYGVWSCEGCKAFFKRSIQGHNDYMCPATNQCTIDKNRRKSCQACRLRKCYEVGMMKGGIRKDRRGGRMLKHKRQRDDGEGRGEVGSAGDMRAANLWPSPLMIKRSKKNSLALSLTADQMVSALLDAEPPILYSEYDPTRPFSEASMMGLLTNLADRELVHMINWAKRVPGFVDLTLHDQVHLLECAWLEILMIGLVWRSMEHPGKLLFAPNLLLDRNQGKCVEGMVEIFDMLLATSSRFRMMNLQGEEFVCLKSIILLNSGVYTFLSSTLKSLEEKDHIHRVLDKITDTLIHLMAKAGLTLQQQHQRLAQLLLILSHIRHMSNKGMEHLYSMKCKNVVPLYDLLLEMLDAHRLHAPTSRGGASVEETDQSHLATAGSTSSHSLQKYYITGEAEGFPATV
Experimental: (§1) Assessment of ER/ERE-dependent luciferase gene transcription in MCF-7:D5L (express ERα) and HEK:ERβ cells (express ERβ) and determination of ER transcriptional agonism was carried as already described. Briefly, the cells were plated in 96-well plates at a density of 12,000 cells per well in phenol-red-free MEM (MCF-7:D5L cells) or phenol-red-free DMEM (HEK:ERβ cells) supplemented with 1 μg/mL insulin and 5% DCC-FBS. […] The AUC of the isoflavonoids of each group were then expressed as % of the AUC of the respective archetypal isoflavone. Since AUC data combine the efficacy as well as the potency of cell response into a single parameter, the %AUC data were considered here as a more reliable measure of relative ER/ERE-dependent luciferase expression of the test compounds.

MCF-7 cells = experiment: MCF-7 cell proliferation (MTT); format: cell-based, human; settings: compounds 1 μM; 72 h
Experimental: Test compound effects on the proliferation of MCF-7 and MDA-MB-231 cells were assessed as previously described.

Ishikawa cells = experiment: Induction of AlkP expression in Ishikawa cells; format: cell-based, human; settings: for Induction of Alkaline Phosphatase Expression (Ishikawa cells) AUC (%): % of AUC of luciferase response of archetypal 3, 4, 5 or 8 up to 0.3, 10, 1.0 and 3.0 μM; for Ratio of AUC (AlkP / Lucif): AUCAlkP / AUCluciferase; for EC50: read-out: Induction of Alkaline Phosphatase Expression (Ishikawa cells) EC50E2; for Induction of AlkP expression (Ishikawa cells) Agonism at 1μΜ, class: compounds 1 μM
Experimental: Induction of AlkP expression of Ishikawa cells is considered as a reliable in vitro measure of estrogenic activity. Assessment of AlkP expression in Ishikawa cells was carried as already described. Briefly, the cells were plated in 96-well plates at a density of 12,000 cells per well in phenol-red-free MEM supplemented with 1 μg/mL insulin and 5% DCC-FBS. […] Data on the dependence of AlkP activity on isoflavonoid concentration were curve fitted using SigmaPlot10 (SPSS Inc) and the numerical data of curve fitting were used to determine AUC as described above, using for the calculation of AUC of a particular AlkP response the very same concentration used for the respective luciferase response. The AUC of AlkP responses of the isoflavonoids of a group were expressed as % of the AUC of the luciferase response of the respective archetypal isoflavone.

ERβ [1] = molecular target: T2, ERβ (Homo sapiens, UniProt Q92731); experiment: ERE-dependent luciferase gene transcription in HEK:ERβ cells; format: cell-based; design: expressed in transfected cells; host or cells: HEK-293 (HEK:ERβ clone, with pERE-tk-Luciferase)
Experimental: as §1

ERβ [2] = molecular target: T2, ERβ; experiment: ER binding competitor assay (fluorescent estrogen ES2), ERβ; design: purchased Invitrogen; settings: for RBAβ / RBAα: ERβ-binding selectivity
HT22 cells = settings: read-out: half maximal concentration for HT22 oxytosis inhibition; cited from earlier work

T2 sequence (Q92731 whole entry): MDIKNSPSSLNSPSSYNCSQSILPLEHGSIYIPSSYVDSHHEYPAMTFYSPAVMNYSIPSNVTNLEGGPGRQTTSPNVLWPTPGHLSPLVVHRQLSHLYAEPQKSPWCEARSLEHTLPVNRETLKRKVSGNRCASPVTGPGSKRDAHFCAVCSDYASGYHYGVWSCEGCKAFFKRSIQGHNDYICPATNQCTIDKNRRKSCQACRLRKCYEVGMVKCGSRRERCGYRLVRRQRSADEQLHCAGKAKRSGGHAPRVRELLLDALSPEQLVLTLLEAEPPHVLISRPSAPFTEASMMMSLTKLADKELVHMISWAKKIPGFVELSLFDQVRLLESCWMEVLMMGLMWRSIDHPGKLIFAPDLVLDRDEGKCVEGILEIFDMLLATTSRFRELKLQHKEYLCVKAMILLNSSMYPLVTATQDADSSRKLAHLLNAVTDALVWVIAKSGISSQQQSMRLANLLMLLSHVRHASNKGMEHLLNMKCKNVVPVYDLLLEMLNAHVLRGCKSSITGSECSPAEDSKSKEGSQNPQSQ

SMILES	Induction of ERE-dependent Luciferase Transcription (MCF-7:D5L cells) AUC (%) (ERα)	Induction of luciferase gene transcription, MCF-7:D5L cells, Agonism at 1μΜ, class (ERα)	Induction of ERE-dependent Luciferase Transcription (MCF-7:D5L cells) EC25E2 (ERα) [µM]	EC50 (ERα; concentration required to achieve 50% of the effect of 0.1 nM E2, read-out: Induction of ERE-dependent Luciferase Transcription (MCF-7:D5L cells) EC50E2) [µM]	Induction of cell proliferation (MCF-7 cells) Agonism at 1μΜ, class (MCF-7 cells)	AlkP response higher than ERα-transcriptional response (relative AUC ratios) (Ishikawa cells)	Induction of Alkaline Phosphatase Expression (Ishikawa cells) AUC (%) (Ishikawa cells)	Ratio of AUC (AlkP / Lucif) (Ishikawa cells)	EC (25% of 0.1 nM E2 effect) (Ishikawa cells; Homo sapiens, Ishikawa, 72 h, concentration required to achieve 25% of the effect of 0.1 nM E2, read-out: Induction of Alkaline Phosphatase Expression (Ishikawa cells) EC25E2) [µM]	EC50 (Ishikawa cells; Homo sapiens, Ishikawa, concentration required to achieve 50% of the effect of 0.1 nM E2) [µM]	Induction of AlkP expression (Ishikawa cells) Agonism at 1μΜ, class (Ishikawa cells; 72 h)	Induction of luciferase gene transcription, HEK:ERβ cells, Agonism at 1μΜ, class (ERβ [1]; compounds 1 μM, 18 h)	RBAβ / RBAα (ERβ [2])	EC50 (HT22 cells) [µM]	EC50 (ERα) [µM]	EC50 (Ishikawa cells; Homo sapiens, Ishikawa) [µM]	activation at 1 µM (ERβ [1]; 18 h, read-out: Induction of luciferase gene transcription through ERβ, HEK:ERβ cells, Agonism at 1μΜ (% of 0.1nM E2)) [%]	ERβ-dependent gene transcription agonist effect compared to the effect of 0.1 nM estradiol (ERβ [1]; isoflavonoids 1 μM, statistically significant effects)	RBAβ (ERβ [2]; RBA = (IC50 estradiol/IC50 compound) × 100, ES2 1 nM, estradiol set equal to 100)
COc1cc(OC2OC(CO)C(O)C(O)C2O)cc2occ(-c3ccc(O)cc3)c(=O)c12 (centres unmarked) [Compound 10, 7-O-glucopyranosyl-isoprunetin]	69±5	Marginal (⩽10%)	6.50 ± 1.10	29.8 ± 5.2	Marginal (⩽10%)	~ 40%	109±8	1.58±0.12	3.48 ± 0.51	8.23 ± 1.24	Marginal (⩽10%)	Marginal (⩽10%)	1.50	–	–	–	–	–	–
Oc1ccc(/C=C/c2cc(O)cc(O)c2)cc1 [resveratrol]	–	–	–	–	–	–	–	–	–	–	–	–	–	≥ 3	–	–	–	–	–
O=c1c(-c2ccc(OC3O[C@H](CO)[C@@H](O)[C@H](O)[C@H]3O)cc2)coc2c(C3O[C@H](CO)[C@@H](O)[C@H](O)[C@H]3O)c(O)cc(O)c12 (some centres unmarked) [Compound 14, 8-C,4΄-O-diglucopyranosyl-genistein]	30±13	Marginal (⩽10%)	3.57 ± 0.58	–	Marginal (⩽10%)	~ 40%	46±10	1.53±0.02	–	–	Marginal (⩽10%)	–	2.50	–	7.72 ± 3.08	6.42 ± 1.52	18 ± 1	lower than	0.05 ± 0.02
O=c1c(O)c(-c2ccc(O)c(O)c2)oc2cc(O)ccc12 [fisetin]	–	–	–	–	–	–	–	–	–	–	–	–	–	≥ 3	–	–	–	–	–
